{"source": "patent US20260224588A1", "about": "“BENZODIAZEPINONE-DERIVED INHIBITORS OF EGFR AND HER2” (The Research Foundation for the State University of New York, priority 2023, published 2026)", "assay_in_all_cases": "KINOMEscan", "type_in_all_cases": "binding", "settings_in_all_cases": "1 μM of compound 4; read-out: POC", "key": {"[1]": {"molecular_target": "T1, AAK1 (Homo sapiens, UniProt Q2M2I8)", "T1 construct": "purchased Eurofins DiscoverX Corporation"}, "[2]": {"molecular_target": "T2, GRK4 (Homo sapiens, UniProt P32298)", "T2 construct": "purchased Eurofins DiscoverX Corporation"}, "[3]": {"molecular_target": "T3, ULK2 (Homo sapiens, UniProt Q8IYT8)", "T3 construct": "purchased Eurofins DiscoverX"}, "[4]": {"molecular_target": "PRKX (Homo sapiens, UniProt P51817)"}, "[5]": {"molecular_target": "CSK (Homo sapiens, UniProt P41240)", "sequence (P41240 whole entry)": "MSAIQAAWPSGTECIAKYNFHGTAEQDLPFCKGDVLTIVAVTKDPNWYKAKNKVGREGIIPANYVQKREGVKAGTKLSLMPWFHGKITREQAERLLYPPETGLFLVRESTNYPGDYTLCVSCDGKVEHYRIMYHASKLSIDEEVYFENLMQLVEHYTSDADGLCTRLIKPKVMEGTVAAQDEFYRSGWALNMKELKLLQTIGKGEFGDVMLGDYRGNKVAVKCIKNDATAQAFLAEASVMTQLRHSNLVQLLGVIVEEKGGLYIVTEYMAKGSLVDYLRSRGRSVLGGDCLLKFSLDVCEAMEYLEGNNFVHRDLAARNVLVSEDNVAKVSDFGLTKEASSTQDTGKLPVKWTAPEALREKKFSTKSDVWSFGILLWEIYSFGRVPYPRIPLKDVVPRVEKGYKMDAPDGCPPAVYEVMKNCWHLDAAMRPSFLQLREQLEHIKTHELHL"}, "[6]": {"molecular_target": "T4, PDPK1 (Homo sapiens, UniProt O15530)", "T4 construct": "purchased Eurofins DiscoverX Corporation (KINOMEscan)"}, "[7]": {"molecular_target": "T5, PAK4 (Homo sapiens, UniProt O96013)", "T5 construct": "purchased Eurofins DiscoverX Corporation (KINOMEscan)"}, "[8]": {"molecular_target": "T6, ROCK2 (Homo sapiens, UniProt O75116)", "T6 construct": "purchased Eurofins DiscoverX Corporation (KINOMEscan screening service)"}, "[9]": {"molecular_target": "T7, FLT3(D835V) (Homo sapiens, UniProt P36888, D835V)", "T7 construct": "purchased Eurofins DiscoverX Corporation"}, "[10]": {"molecular_target": "T8, FRK (Homo sapiens, UniProt P42685)", "T8 construct": "purchased Eurofins DiscoverX Corporation"}, "[11]": {"molecular_target": "CIT (Homo sapiens, UniProt O14578)"}, "[12]": {"molecular_target": "PHKG1 (Homo sapiens, UniProt Q16816)"}, "[13]": {"molecular_target": "ADCK4 (Homo sapiens, UniProt Q96D53)"}, "[14]": {"molecular_target": "T9, VRK2 (Homo sapiens, UniProt Q86Y07)", "T9 construct": "purchased Eurofins DiscoverX"}, "[15]": {"molecular_target": "LKB1 (Homo sapiens, UniProt Q15831)"}, "[16]": {"molecular_target": "PRP4 (Homo sapiens, UniProt Q13523)"}, "[17]": {"molecular_target": "T10, HIPK1 (Homo sapiens, UniProt Q86Z02)", "T10 construct": "purchased Eurofins DiscoverX Corporation"}, "[18]": {"molecular_target": "INSR (Homo sapiens, UniProt P06213)"}, "[19]": {"molecular_target": "CSNK2A1 (Homo sapiens, UniProt P68400)"}, "[20]": {"molecular_target": "T11, ABL1(H396P)-phosphorylated (Homo sapiens, UniProt P00519, H396P)", "T11 construct": "purchased Eurofins DiscoverX Corporation"}, "[21]": {"molecular_target": "T12, TAK1 (Homo sapiens, UniProt O43318)", "T12 construct": "purchased Eurofins DiscoverX Corporation"}, "[22]": {"molecular_target": "T13, HIPK3 (Homo sapiens, UniProt Q9H422)", "T13 construct": "purchased Eurofins DiscoverX Corporation"}, "[23]": {"molecular_target": "PIP5K1A (Homo sapiens, UniProt Q99755)", "sequence (Q99755 whole entry)": "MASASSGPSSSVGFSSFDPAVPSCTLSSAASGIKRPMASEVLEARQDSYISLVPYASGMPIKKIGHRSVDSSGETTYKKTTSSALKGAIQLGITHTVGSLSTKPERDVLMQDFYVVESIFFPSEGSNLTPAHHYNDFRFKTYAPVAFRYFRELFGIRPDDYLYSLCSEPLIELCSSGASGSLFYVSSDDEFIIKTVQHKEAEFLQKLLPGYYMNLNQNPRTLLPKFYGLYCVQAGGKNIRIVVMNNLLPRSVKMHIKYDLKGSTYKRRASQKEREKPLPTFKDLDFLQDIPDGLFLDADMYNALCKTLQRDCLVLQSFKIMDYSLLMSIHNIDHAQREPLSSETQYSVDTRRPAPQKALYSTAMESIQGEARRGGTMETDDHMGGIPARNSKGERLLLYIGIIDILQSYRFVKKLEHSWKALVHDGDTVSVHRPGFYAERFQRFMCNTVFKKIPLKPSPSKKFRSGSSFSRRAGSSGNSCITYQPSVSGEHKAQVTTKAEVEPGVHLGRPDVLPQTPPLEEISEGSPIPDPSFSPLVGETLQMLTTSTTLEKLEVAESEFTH"}, "[24]": {"molecular_target": "MLK1 (Homo sapiens, UniProt P80192)", "sequence (P80192 whole entry)": "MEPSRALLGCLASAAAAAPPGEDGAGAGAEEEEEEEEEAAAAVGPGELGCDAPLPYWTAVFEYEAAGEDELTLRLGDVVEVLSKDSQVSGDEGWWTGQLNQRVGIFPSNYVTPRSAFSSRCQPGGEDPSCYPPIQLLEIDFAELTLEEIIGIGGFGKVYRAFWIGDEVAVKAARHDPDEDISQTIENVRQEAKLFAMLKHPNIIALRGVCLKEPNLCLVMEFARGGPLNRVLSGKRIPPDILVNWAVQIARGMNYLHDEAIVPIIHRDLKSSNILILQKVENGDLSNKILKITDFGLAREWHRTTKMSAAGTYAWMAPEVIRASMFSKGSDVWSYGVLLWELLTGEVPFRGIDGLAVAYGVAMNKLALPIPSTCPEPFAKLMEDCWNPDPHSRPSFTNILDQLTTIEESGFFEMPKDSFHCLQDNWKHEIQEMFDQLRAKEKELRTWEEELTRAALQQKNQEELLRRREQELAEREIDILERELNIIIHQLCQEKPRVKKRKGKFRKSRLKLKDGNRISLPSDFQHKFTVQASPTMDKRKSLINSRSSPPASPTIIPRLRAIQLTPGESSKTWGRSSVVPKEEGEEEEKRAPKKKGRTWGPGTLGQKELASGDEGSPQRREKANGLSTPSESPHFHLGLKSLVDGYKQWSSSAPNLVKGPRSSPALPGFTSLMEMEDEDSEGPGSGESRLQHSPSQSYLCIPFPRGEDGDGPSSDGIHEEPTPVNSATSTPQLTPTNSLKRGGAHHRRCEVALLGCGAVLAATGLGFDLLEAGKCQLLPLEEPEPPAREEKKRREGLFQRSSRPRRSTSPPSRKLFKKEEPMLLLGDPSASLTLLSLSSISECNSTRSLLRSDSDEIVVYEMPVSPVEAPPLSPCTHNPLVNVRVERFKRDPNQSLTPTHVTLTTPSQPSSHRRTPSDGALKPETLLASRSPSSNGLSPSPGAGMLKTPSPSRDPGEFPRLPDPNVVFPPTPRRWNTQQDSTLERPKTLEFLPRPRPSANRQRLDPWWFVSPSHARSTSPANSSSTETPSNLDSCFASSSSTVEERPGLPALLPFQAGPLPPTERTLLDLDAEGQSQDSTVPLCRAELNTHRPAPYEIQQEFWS"}, "[25]": {"molecular_target": "CSNK1A1L (Homo sapiens, UniProt Q8N752)"}, "[26]": {"molecular_target": "T14, SIK (Homo sapiens, UniProt P57059)", "T14 construct": "purchased Eurofins DiscoverX (KINOMEscan service)"}, "[27]": {"molecular_target": "T15, RPS6KA4(Kin.Dom.2-C-terminal) (Homo sapiens, UniProt O75676)", "T15 construct": "RPS6KA4(Kin.Dom.2-C-terminal); purchased Eurofins DiscoverX Corporation (KINOMEscan screening service)", "T15 sequence (O75676 411-674 limits assumed)": "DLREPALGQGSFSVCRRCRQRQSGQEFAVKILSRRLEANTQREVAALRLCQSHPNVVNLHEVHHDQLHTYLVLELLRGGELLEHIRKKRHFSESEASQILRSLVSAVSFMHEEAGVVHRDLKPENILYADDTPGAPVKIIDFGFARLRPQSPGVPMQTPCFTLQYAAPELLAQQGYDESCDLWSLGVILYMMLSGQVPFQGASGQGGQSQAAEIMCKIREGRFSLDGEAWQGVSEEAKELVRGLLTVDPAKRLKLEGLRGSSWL"}, "[28]": {"molecular_target": "T16, ABL1(T315I)-nonphosphorylated (Homo sapiens, UniProt P00519, T315I)", "T16 construct": "purchased Eurofins DiscoverX Corporation"}, "[29]": {"molecular_target": "T17, WNK3 (Homo sapiens, UniProt Q9BYP7)", "T17 construct": "purchased Eurofins DiscoverX"}, "[30]": {"molecular_target": "CDK4 (Homo sapiens, UniProt P11802)", "sequence (P11802 whole entry)": "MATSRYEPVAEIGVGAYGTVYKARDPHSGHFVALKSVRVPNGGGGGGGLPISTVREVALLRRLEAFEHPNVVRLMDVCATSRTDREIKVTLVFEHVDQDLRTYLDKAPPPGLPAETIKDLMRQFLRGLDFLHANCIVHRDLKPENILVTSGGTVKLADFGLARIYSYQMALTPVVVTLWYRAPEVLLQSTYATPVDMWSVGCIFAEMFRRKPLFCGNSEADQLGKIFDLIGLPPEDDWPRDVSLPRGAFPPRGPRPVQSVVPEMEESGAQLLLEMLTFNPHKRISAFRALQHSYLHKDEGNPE"}, "[31]": {"molecular_target": "KIT(L576P) (Homo sapiens, UniProt P10721, L576P)"}, "[32]": {"molecular_target": "T18, SGK2 (Homo sapiens, UniProt Q9HBY8)", "T18 construct": "purchased Eurofins DiscoverX (KINOMEscan service)"}, "[33]": {"molecular_target": "T19, WNK1 (Homo sapiens, UniProt Q9H4A3)", "T19 construct": "purchased Eurofins DiscoverX"}, "[34]": {"molecular_target": "ALK(L1196M) (Homo sapiens, UniProt Q9UM73, L1196M)", "sequence (Q9UM73 19-1620 L1196M)": "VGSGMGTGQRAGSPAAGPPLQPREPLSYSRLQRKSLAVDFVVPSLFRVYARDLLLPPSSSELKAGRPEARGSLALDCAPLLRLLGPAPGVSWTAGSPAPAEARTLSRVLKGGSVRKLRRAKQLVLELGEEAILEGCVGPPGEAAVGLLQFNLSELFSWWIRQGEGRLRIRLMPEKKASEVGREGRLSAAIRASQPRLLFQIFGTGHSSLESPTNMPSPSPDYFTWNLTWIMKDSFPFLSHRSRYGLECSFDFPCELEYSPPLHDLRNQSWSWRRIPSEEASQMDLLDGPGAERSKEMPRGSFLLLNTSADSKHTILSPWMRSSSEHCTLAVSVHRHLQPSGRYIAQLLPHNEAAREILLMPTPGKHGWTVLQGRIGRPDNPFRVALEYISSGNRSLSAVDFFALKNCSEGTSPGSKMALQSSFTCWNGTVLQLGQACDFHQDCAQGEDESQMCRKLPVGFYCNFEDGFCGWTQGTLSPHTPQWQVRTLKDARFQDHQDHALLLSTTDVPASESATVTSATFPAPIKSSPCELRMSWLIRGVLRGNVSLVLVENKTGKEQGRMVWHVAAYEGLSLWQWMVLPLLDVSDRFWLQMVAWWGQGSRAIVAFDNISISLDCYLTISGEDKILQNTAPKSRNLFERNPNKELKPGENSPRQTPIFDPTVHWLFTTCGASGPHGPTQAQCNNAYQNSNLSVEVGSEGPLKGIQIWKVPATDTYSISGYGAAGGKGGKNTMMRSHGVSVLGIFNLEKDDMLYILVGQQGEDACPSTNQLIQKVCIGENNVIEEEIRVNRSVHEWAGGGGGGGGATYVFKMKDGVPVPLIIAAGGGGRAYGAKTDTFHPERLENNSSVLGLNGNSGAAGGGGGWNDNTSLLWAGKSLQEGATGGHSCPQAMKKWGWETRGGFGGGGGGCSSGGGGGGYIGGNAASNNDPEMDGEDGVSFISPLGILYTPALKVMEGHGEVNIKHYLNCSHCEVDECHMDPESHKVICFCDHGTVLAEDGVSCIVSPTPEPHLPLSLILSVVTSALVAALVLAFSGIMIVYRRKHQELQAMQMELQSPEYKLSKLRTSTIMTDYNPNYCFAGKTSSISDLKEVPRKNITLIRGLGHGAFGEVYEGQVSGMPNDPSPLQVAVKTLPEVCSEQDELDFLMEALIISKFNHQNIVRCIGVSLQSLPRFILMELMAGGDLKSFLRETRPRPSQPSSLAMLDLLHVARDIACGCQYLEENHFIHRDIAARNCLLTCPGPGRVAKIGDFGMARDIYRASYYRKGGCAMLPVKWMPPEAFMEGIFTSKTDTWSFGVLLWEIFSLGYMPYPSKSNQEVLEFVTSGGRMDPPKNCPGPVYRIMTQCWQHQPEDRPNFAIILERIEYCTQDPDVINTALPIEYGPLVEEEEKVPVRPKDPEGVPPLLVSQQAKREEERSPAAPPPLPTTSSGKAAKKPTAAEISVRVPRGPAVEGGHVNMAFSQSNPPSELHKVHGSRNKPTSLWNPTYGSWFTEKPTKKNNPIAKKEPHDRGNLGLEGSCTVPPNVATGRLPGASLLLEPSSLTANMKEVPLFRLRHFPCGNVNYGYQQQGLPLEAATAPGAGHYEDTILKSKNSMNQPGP"}, "[35]": {"molecular_target": "T20, SRPK1 (Homo sapiens, UniProt Q96SB4)", "T20 construct": "purchased Eurofins DiscoverX (KINOMEscan service)"}, "[36]": {"molecular_target": "T21, ERBB3 (Homo sapiens, UniProt P21860)", "T21 construct": "purchased Eurofins DiscoverX Corporation"}, "[37]": {"molecular_target": "T22, SNARK (Homo sapiens, UniProt Q9H093)", "T22 construct": "purchased Eurofins DiscoverX (KINOMEscan service)"}, "[38]": {"molecular_target": "T23, PFCDPK1(P. falciparum) (Plasmodium falciparum, UniProt P62344)", "T23 construct": "purchased Eurofins DiscoverX Corporation (KINOMEscan)"}, "[39]": {"molecular_target": "CTK (Homo sapiens, UniProt P42679)", "sequence (P42679 whole entry)": "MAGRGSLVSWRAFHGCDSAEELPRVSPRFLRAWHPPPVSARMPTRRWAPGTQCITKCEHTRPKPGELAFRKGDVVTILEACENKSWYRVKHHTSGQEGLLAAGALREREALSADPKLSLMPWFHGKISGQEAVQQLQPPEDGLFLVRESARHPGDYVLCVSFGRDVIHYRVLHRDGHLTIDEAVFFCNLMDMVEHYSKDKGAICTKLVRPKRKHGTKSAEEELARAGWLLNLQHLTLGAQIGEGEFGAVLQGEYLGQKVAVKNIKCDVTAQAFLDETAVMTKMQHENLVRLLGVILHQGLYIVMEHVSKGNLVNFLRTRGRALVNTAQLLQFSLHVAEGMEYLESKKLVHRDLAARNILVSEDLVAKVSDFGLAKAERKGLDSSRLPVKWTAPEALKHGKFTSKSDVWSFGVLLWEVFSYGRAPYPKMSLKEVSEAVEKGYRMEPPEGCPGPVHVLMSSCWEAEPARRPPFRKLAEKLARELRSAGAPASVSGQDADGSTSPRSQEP"}}}
{"smiles": "C=CC(=O)Nc1ccc(OC)c(Nc2cc(-c3[nH]c(CC)nc3-c3cccc(NC(=O)c4cccc5c4NC(=O)c4ccccc4N5)c3)ccn2)c1", "note": "[Compound 4, N-(3-(5-(2-((5-Acrylamido-2-methoxyphenyl)amino)pyridin-4-yl)-2-ethyl-1H-imidazol-4-yl)phenyl)-11-oxo-10,11-dihydro-5H-dibenzo[b,e][1,4]diazepine-9-carboxamide]", "values": [{"measurement": "remaining binding at 1 µM", "setting": "[1]", "result": 100, "unit": "%"}, {"measurement": "remaining binding at 1 µM", "setting": "[2]", "result": 100, "unit": "%"}, {"measurement": "remaining binding at 1 µM", "setting": "[3]", "result": 80, "unit": "%"}, {"measurement": "remaining binding at 1 µM", "setting": "[4]", "result": 100, "unit": "%"}, {"measurement": "remaining binding at 1 µM", "setting": "[5]", "result": 14, "unit": "%"}, {"measurement": "remaining binding at 1 µM", "setting": "[6]", "result": 84, "unit": "%"}, {"measurement": "remaining binding at 1 µM", "setting": "[7]", "result": 89, "unit": "%"}, {"measurement": "remaining binding at 1 µM", "setting": "[8]", "result": 94, "unit": "%"}, {"measurement": "remaining binding at 1 µM", "setting": "[9]", "result": 100, "unit": "%"}, {"measurement": "remaining binding at 1 µM", "setting": "[10]", "result": 20, "unit": "%"}, {"measurement": "remaining binding at 1 µM", "setting": "[11]", "result": 6.3, "unit": "%"}, {"measurement": "remaining binding at 1 µM", "setting": "[12]", "result": 96, "unit": "%"}, {"measurement": "remaining binding at 1 µM", "setting": "[13]", "result": 85, "unit": "%"}, {"measurement": "remaining binding at 1 µM", "setting": "[14]", "result": 100, "unit": "%"}, {"measurement": "remaining binding at 1 µM", "setting": "[15]", "result": 100, "unit": "%"}, {"measurement": "remaining binding at 1 µM", "setting": "[16]", "result": 46, "unit": "%"}, {"measurement": "remaining binding at 1 µM", "setting": "[17]", "result": 51, "unit": "%"}, {"measurement": "remaining binding at 1 µM", "setting": "[18]", "result": 97, "unit": "%"}, {"measurement": "remaining binding at 1 µM", "setting": "[19]", "result": 100, "unit": "%"}, {"measurement": "remaining binding at 1 µM", "setting": "[20]", "result": 74, "unit": "%"}, {"measurement": "remaining binding at 1 µM", "setting": "[21]", "result": 95, "unit": "%"}, {"measurement": "remaining binding at 1 µM", "setting": "[22]", "result": 100, "unit": "%"}, {"measurement": "remaining binding at 1 µM", "setting": "[23]", "result": 75, "unit": "%"}, {"measurement": "remaining binding at 1 µM", "setting": "[24]", "result": 86, "unit": "%"}, {"measurement": "remaining binding at 1 µM", "setting": "[25]", "result": 91, "unit": "%"}, {"measurement": "remaining binding at 1 µM", "setting": "[26]", "result": 100, "unit": "%"}, {"measurement": "remaining binding at 1 µM", "setting": "[27]", "result": 75, "unit": "%"}, {"measurement": "remaining binding at 1 µM", "setting": "[28]", "result": 98, "unit": "%"}, {"measurement": "remaining binding at 1 µM", "setting": "[29]", "result": 78, "unit": "%"}, {"measurement": "remaining binding at 1 µM", "setting": "[30]", "result": 100, "unit": "%"}, {"measurement": "remaining binding at 1 µM", "setting": "[31]", "result": 84, "unit": "%"}, {"measurement": "remaining binding at 1 µM", "setting": "[32]", "result": 83, "unit": "%"}, {"measurement": "remaining binding at 1 µM", "setting": "[33]", "result": 100, "unit": "%"}, {"measurement": "remaining binding at 1 µM", "setting": "[34]", "result": 89, "unit": "%"}, {"measurement": "remaining binding at 1 µM", "setting": "[35]", "result": 100, "unit": "%"}, {"measurement": "remaining binding at 1 µM", "setting": "[36]", "result": 84, "unit": "%"}, {"measurement": "remaining binding at 1 µM", "setting": "[37]", "result": 100, "unit": "%"}, {"measurement": "remaining binding at 1 µM", "setting": "[38]", "result": 87, "unit": "%"}, {"measurement": "remaining binding at 1 µM", "setting": "[39]", "result": 54, "unit": "%"}]}
